Experimental findings from patent publication US20020182112A1, “In vivo method for measuring binding of chemical actives to skin or specific constituents of skin” (Unilever Home & Personal Care USA, Division of Conopco, Inc., priority 2001, published 2002) are described below.

The assay has as its target Bovine Serum Albumim (BSA) (Bos taurus, UniProt P02769). In words: Pyranine fluorescence in BSA solution: replacement of pyranine from BSA binding sites by added surfactant. The conditions noted are these: for ratio of the fluorescence intensities 509 nm / 426 nm: no surfactant; for ratio of the fluorescence intensities from the deprotonated and protonated state (509 nm / 426 nm): pyranine 1.0×10^−8 M in 50 mM Hepes buffer pH 6.7, BSA 2.5 mg/ml, surfactant added at weight fraction 4×10^−5. As to the method:
Fluorescence spectra of pyranine in solutions and on skin were obtained using a Perkin Elmer LS50B fluorometer. In the case of spectra taken on skin, the fiber optic probe accessory was used.
All spectra were taken at pyranine concentrations of 1.0×10^−8 M in 50 mM Hepes buffer (aqueous buffer solution with pH 6.7). Bovine Serum Albumim (BSA) concentrations were 2.5 mg/ml. Surfactant was added at weight fractions of 4×10^−5.
In order to test the applicability of pyranine fluorescence to monitor the binding of surfactants to proteins, applicants studied the effect of added surfactant on the fluorescence spectrum of aqueous solutions of pyranine and BSA. […] This effect can be explained by the replacement of pyranine molecules bound to BSA by SDS molecules leading to an increased concentration of pyranine in free solution and therefore a relative increase in intensity of the fluorescence from the deprotonated state. The ratio of the fluorescence intensities from the deprotonated and protonated site is a measure of the ability of a surfactant to replace pyranine from BSA binding sites.

Bovine Serum Albumim (BSA), sequence (P02769 25-607): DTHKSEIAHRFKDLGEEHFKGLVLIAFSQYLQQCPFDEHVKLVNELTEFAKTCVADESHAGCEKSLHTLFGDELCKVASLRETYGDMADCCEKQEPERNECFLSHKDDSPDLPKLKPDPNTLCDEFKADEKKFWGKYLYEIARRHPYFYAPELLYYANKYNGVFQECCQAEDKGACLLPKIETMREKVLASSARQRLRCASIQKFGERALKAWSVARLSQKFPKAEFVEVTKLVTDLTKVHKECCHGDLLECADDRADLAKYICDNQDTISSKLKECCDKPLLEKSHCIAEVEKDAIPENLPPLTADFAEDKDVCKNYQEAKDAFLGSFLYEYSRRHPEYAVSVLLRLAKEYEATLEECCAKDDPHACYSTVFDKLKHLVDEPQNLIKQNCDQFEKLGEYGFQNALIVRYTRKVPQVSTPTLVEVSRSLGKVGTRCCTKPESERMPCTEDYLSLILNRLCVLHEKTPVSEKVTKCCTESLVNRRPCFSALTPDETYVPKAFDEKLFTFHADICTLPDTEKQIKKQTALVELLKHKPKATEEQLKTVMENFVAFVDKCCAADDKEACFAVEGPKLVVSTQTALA

Regarding `O=S(=O)(O)c1cc(O)c2ccc3c(S(=O)(=O)O)cc(S(=O)(=O)O)c4ccc1c2c34` [Pyranine, 8-hydroxyl-1 ,3,6-pyrene-trisulfonic acid], the “ratio of the fluorescence intensities 509 nm / 426 nm” value by setting is: (pyranine 1.0×10^−8 M in 50 mM Hepes buffer pH 6.7, no BSA) 8.03; (pyranine 1.0×10^−8 M in 50 mM Hepes buffer pH 6.7 with BSA 2.5 mg/ml) 1.17.
Turning to `CCCCCCCCCCCCOS(=O)(=O)[O-].[Na+]` [SDS, sodium dodecyl sulphate], the “ratio of the fluorescence intensities from the deprotonated and protonated state (509 nm / 426 nm)” value is on record as 2.23. Also, the “effect of added surfactant on the fluorescence spectrum of pyranine and BSA (FIG. 2)” value (50 mM Hepes buffer, 2.5 mg/ml BSA, 4×10^−5 weight fraction SDS) is “significant increase of the relative intensity of the fluorescence from the deprotonated state”.
For `CCCCCCCCCCCC(=O)[O-].[Na+]` [Sodium Laurate], the “ratio of the fluorescence intensities from the deprotonated and protonated state (509 nm / 426 nm)” value stood at 2.13.
Still for that read-out and setting: the same measure for Cocamilopropyl Betaine: 1.56; for Sodiumlauryl Ether Sulfate: 2.12; for alkylpolyglycoside [APG]: 1.34.
